{"source": "ChEMBL document CHEMBL1141685", "about": "“Hexahydro-pyrrolo- and hexahydro-1H-pyrido[1,2-b]pyridazin-2-ones as potent inhibitors of HCV NS5B polymerase” (Bioorg Med Chem Lett, 2008)", "key": {"[1]": {"experiment": "Metabolic stability in cynomolgus monkey liver microsomes at 1 uM"}, "[2]": {"experiment": "Metabolic stability in human liver microsomes at 1 uM"}, "[3]": {"experiment": "Metabolic stability in human liver microsomes assessed as compound remaining at 1 uM after 60 mins", "assay_type": "ADME, Microsome", "conditions": "read-out: Stability"}, "[4]": {"experiment": "Cytotoxicity against human Huh7/C24 cells after 72 hrs […]", "assay_type": "cell-based, Huh-7"}, "Hepatitis C virus [5]": {"tested_on": "Hepatitis C virus", "experiment": "Antiviral activity against HCV 1b infected in human Huh7/C24 cells after 72 hrs by replicon assay", "assay_type": "functional, organism-based, Hepacivirus hominis", "conditions": "genotype 1b, Huh-7, 72 h"}, "Hepatitis C virus [6]": {"tested_on": "Hepatitis C virus", "experiment": "Inhibition of HCV 1b NS5B polymerase by microbeta scintillation counter", "parameters": "species or system Hepatitis C virus subtype 1b"}, "[7]": {"experiment": "Apparent permeability from apical to basolateral side in human Caco-2 cell membrane at 10 uM"}, "[8]": {"experiment": "Metabolic stability in cynomolgus monkey liver microsomes assessed as compound remaining at 1 uM after 60 mins", "assay_type": "ADME, Macaca fascicularis, Microsome", "conditions": "read-out: Stability"}, "Cynomolgus monkey [9]": {"tested_on": "Cynomolgus monkey", "experiment": "Hepatic blood flow in cynomolgus monkey", "assay_type": "ADME, organism-based, Macaca fascicularis, Liver"}, "[10]": {"experiment": "Fabs in cynomolgus monkey", "assay_type": "ADME, organism-based, Macaca fascicularis", "conditions": "in vivo, read-out: Fabs"}, "[11]": {"experiment": "Oral bioavailability in cynomolgus monkey at 1 mg/kg", "assay_type": "ADME, organism-based, Macaca fascicularis", "conditions": "in vivo"}, "Cynomolgus monkey [12]": {"tested_on": "Cynomolgus monkey", "experiment": "AUC (0 to infinity) in cynomolgus monkey at 1 mg/kg, iv", "assay_type": "ADME, organism-based, Macaca fascicularis, Plasma", "parameters": "time infinity, dose 1 mg/kg, route intravenous", "conditions": "in vivo"}, "Cynomolgus monkey [13]": {"tested_on": "Cynomolgus monkey", "experiment": "AUC (0 to infinity) in cynomolgus monkey at 1 mg/kg, po", "assay_type": "ADME, organism-based, Macaca fascicularis, Plasma", "parameters": "time infinity, dose 1 mg/kg, route oral", "conditions": "in vivo"}}}
{"smiles": "CS(=O)(=O)Nc1ccc2c(c1)S(=O)(=O)N=C(c1c(O)c3cccn3n(Cc3ccc(F)cc3)c1=O)N2", "values": [{"measurement": "half-life at 1 µM", "setting": "[1]; liver microsomes", "result": "> 60", "unit": "min"}, {"measurement": "half-life at 1 µM", "setting": "[2]; liver microsomes", "result": "> 60", "unit": "min"}, {"measurement": "remaining at 1 h, 1 µM", "setting": "[3]", "result": 86, "unit": "%"}, {"measurement": "CC50 at 72 h", "setting": "[4]", "result": "> 1000", "unit": "nM"}, {"measurement": "EC50", "setting": "Hepatitis C virus [5]", "result": 12, "unit": "nM"}, {"measurement": "IC50", "setting": "Hepatitis C virus [6]", "result": "< 10", "unit": "nM"}]}
{"smiles": "CS(=O)(=O)Nc1ccc2c(c1)S(=O)(=O)N=C(C1=C(O)C3CCCCN3N(Cc3ccc(F)cc3)C1=O)N2", "note": "(configuration not stated)", "values": [{"measurement": "half-life at 1 µM", "setting": "[1]; microsomes", "result": "> 60", "unit": "min"}, {"measurement": "Papp A→B at 10 µM", "setting": "[7]", "result": 0.1, "unit": "×10⁻⁶ cm/s"}, {"measurement": "half-life at 1 µM", "setting": "[2]; microsomes", "result": "> 60", "unit": "min"}, {"measurement": "remaining at 1 h, 1 µM", "setting": "[3]", "result": 102, "unit": "%"}, {"measurement": "CC50 at 72 h", "setting": "[4]", "result": "> 1000", "unit": "nM"}, {"measurement": "remaining at 1 h, 1 µM", "setting": "[8]", "result": 100, "unit": "%"}, {"measurement": "EC50", "setting": "Hepatitis C virus [5]", "result": 300, "unit": "nM"}, {"measurement": "IC50", "setting": "Hepatitis C virus [6]", "result": 16, "unit": "nM"}]}
{"smiles": "CN(c1ccc2c(c1)S(=O)(=O)N=C(C1=C(O)C3CCCN3N(CCC(C)(C)C)C1=O)N2)S(C)(=O)=O", "note": "(configuration not stated)", "values": [{"measurement": "half-life at 1 µM", "setting": "[1]; liver microsomes", "result": 17, "unit": "min"}, {"measurement": "half-life at 1 µM", "setting": "[2]; liver microsomes", "result": "> 60", "unit": "min"}, {"measurement": "CC50 at 72 h", "setting": "[4]", "result": "> 33000", "unit": "nM"}, {"measurement": "EC50", "setting": "Hepatitis C virus [5]", "result": 3600, "unit": "nM"}, {"measurement": "IC50", "setting": "Hepatitis C virus [6]", "result": 160, "unit": "nM"}]}
{"smiles": "CC(C)(C)CCN1C(=O)C(C2=NS(=O)(=O)c3cc(NS(C)(=O)=O)ccc3N2)=C(O)C2(C)CCCN12", "note": "(configuration not stated)", "values": [{"measurement": "half-life at 1 µM", "setting": "[1]; liver microsomes", "result": 10, "unit": "min"}, {"measurement": "Papp A→B at 10 µM", "setting": "[7]", "result": 0.6, "unit": "×10⁻⁶ cm/s"}, {"measurement": "half-life at 1 µM", "setting": "[2]; liver microsomes", "result": 4.9, "unit": "min"}, {"measurement": "CC50 at 72 h", "setting": "[4]", "result": "> 33000", "unit": "nM"}, {"measurement": "EC50", "setting": "Hepatitis C virus [5]", "result": 1100, "unit": "nM"}, {"measurement": "IC50", "setting": "Hepatitis C virus [6]", "result": 180, "unit": "nM"}]}
{"smiles": "CC(C)(C)CCN1C(=O)C(C2=NS(=O)(=O)c3cc(NS(C)(=O)=O)ccc3N2)=C(O)C2CCCCN21", "note": "(configuration not stated)", "values": [{"measurement": "half-life at 1 µM", "setting": "[1]; liver microsomes", "result": 18, "unit": "min"}, {"measurement": "Papp A→B at 10 µM", "setting": "[7]", "result": 0.31, "unit": "×10⁻⁶ cm/s"}, {"measurement": "half-life at 1 µM", "setting": "[2]; liver microsomes", "result": 52, "unit": "min"}, {"measurement": "CC50 at 72 h", "setting": "[4]", "result": "> 33000", "unit": "nM"}, {"measurement": "EC50", "setting": "Hepatitis C virus [5]", "result": 110, "unit": "nM"}, {"measurement": "IC50", "setting": "Hepatitis C virus [6]", "result": 41, "unit": "nM"}]}
{"smiles": "CS(=O)(=O)Nc1ccc2c(c1)S(=O)(=O)N=C(C1=C(O)C3CCCN3N(Cc3ccc(F)cc3)C1=O)N2", "note": "(configuration not stated)", "values": [{"measurement": "half-life at 1 µM", "setting": "[1]; liver microsomes", "result": "> 60", "unit": "min"}, {"measurement": "Papp A→B at 10 µM", "setting": "[7]", "result": 0.2, "unit": "×10⁻⁶ cm/s"}, {"measurement": "half-life at 1 µM", "setting": "[2]; liver microsomes", "result": "> 60", "unit": "min"}, {"measurement": "remaining at 1 h, 1 µM", "setting": "[3]", "result": 87, "unit": "%"}, {"measurement": "CC50 at 72 h", "setting": "[4]", "result": "> 1000", "unit": "nM"}, {"measurement": "remaining at 1 h, 1 µM", "setting": "[8]", "result": 94, "unit": "%"}, {"measurement": "EC50", "setting": "Hepatitis C virus [5]", "result": 190, "unit": "nM"}, {"measurement": "IC50", "setting": "Hepatitis C virus [6]", "result": "< 10", "unit": "nM"}]}
{"smiles": "CC(C)(C)CCN1C(=O)C(C2=NS(=O)(=O)c3cc(NS(C)(=O)=O)ccc3N2)=C(O)C2CCCN21", "note": "(configuration not stated)", "values": [{"measurement": "QH", "setting": "Cynomolgus monkey [9]", "result": 44, "unit": "mL/min/kg"}, {"measurement": "Fa", "setting": "[10]", "result": 8, "unit": "%"}, {"measurement": "bioavailability", "setting": "[11]", "result": 7, "unit": "%"}, {"measurement": "half-life at 1 µM", "setting": "[1]; microsomes", "result": 7.5, "unit": "min"}, {"measurement": "Papp A→B at 10 µM", "setting": "[7]", "result": 0.44, "unit": "×10⁻⁶ cm/s"}, {"measurement": "AUC", "setting": "Cynomolgus monkey [12]", "result": 5180, "unit": "ng·h/mL"}, {"measurement": "half-life at 1 µM", "setting": "[2]; microsomes", "result": 59, "unit": "min"}, {"measurement": "CC50 at 72 h", "setting": "[4]", "result": "> 1000", "unit": "nM"}, {"measurement": "AUC", "setting": "Cynomolgus monkey [13]", "result": 344, "unit": "ng·h/mL"}, {"measurement": "EC50", "setting": "Hepatitis C virus [5]", "result": 34, "unit": "nM"}, {"measurement": "IC50", "setting": "Hepatitis C virus [6]", "result": "< 10", "unit": "nM"}]}
{"smiles": "CC(C)CCN1C(=O)C(C2=NS(=O)(=O)c3cc(NS(C)(=O)=O)ccc3N2)=C(O)C2CCCN21", "note": "(configuration not stated)", "values": [{"measurement": "half-life at 1 µM", "setting": "[1]; microsomes", "result": 63, "unit": "min"}, {"measurement": "Papp A→B at 10 µM", "setting": "[7]", "result": 0.2, "unit": "×10⁻⁶ cm/s"}, {"measurement": "half-life at 1 µM", "setting": "[2]; microsomes", "result": "> 60", "unit": "min"}, {"measurement": "remaining at 1 h, 1 µM", "setting": "[3]", "result": 65, "unit": "%"}, {"measurement": "CC50 at 72 h", "setting": "[4]", "result": "> 1000", "unit": "nM"}, {"measurement": "EC50", "setting": "Hepatitis C virus [5]", "result": 160, "unit": "nM"}, {"measurement": "IC50", "setting": "Hepatitis C virus [6]", "result": 12, "unit": "nM"}]}
